The values that follow come from KR20070037041A, “누에 수번데기로부터 아데노신 유도체 화합물을 정제하는방법 및 아데노신 유도체 화합물을 포함하는 발기부전치료용 조성물” (대한민국(관리부서:농촌진흥청장), priority 2005, dated 2007).

The conditions of data set [1]: cited from earlier work.
The test system of data set [2] is phosphodiesterase (PDE) [포스포디에스터라제]. Briefly: PDE inhibition in combination with existing PDE inhibitors. It is filed as biochemical. The conditions noted are these: existing PDE inhibitor combined with DX fraction (20, 10, 4 μg); in words.
Data set [3] concerns phosphodiesterase I from snake venom (Crotalus atrox), PDE type IV [포스포디에스테라제 I은 뱀독 (Crotalus atrox) 유래 PDE 타입 IV]. The data set is described as follows: Phosphodiesterase inhibition ([3H] cAMP SPA). In kind it is biochemical.
The test system of data set [4] is bovine endothelial cells (CPAE) [소내피세포(CPAE)]. In kind it is cell-based. Particulars: 24 h.
Data set [5] has as its system bovine vascular endothelial cells (CPAE cell line) [소혈관 내피세포(CPAE cell line)]. Briefly: NO production in CPAE endothelial cells (total nitrate/nitrite, Nims method). It is filed as cell-based.

Take `CCCc1nc(C)c2c(=O)[nH]c(-c3cc(S(=O)(=O)N4CCN(CC)CC4)ccc3OCC)nn12` [레비트라]: the duration of erection in data set [1] (background) is recorded as no more than 36 h.

With `CN1CC(=O)N2[C@H](c3ccc4c(c3)OCO4)c3[nH]c4ccccc4c3C[C@@H]2C1=O` [시알리스], the “duration of drug effect” value in data set [1] (background) is no more than 36 h. Regarding `COc1cc2c(cc1OC)-c1c/c(=N\c3c(C)cc(C)cc3C)n(C)c(=O)n1CC2` [Trequinsin, 하이드로클로라이드], in data set [2], the “PDE inhibition on combined administration” value is “상승작용”.

On to `CCCOc1ccccc1-c1nc2nn[nH]c2c(=O)[nH]1` [자프리나스트(zaprinast)], for which the erection induction result in data set [1] (compared with Viagra, Trigo-Rocha 1993, Taher 1994) is given as “비아그라보다 다소 낮은 정도로 발기를 유도”. As to “5-{6-(디메틸아미노)-9H-푸린-9-일}-테트라히드로-4'-푸란-3'-올-5'-o-테트라파이로(tetrafyro)-2H-피란-3'',4'',5''-트리올 [RPC-IV]”, the phosphodiesterase inhibition result in data set [3] (0, 2, 10, 20 μg, in words) is “용량의존적 저해”. In data set [3] (PDE [3H] cAMP SPA), this molecule returned a concentration for half-maximal inhibition (IC50) of 0.88 µg/mL. In data set [4], the cell viability came out at 86.9%. In addition, the “NO production (540 nm)” value in data set [5] (RP-HPLC fractions, absorbance at 540 nm) was determined as 1.426. Also, the NO activity entry in data set [5] (chromatographic fractions, in words) is on record as “최대로 방출”.

The IC50 is the concentration at which inhibition is half-maximal. Low readings indicate inhibition by little substance, high ones a need for much substance. By cell viability is commonly meant a per cent measure of how many cells are alive, often set against a control.
